Laboratory results reported in patent US8080644B2, “Oligonucleotide analogues” (Exiqon A/S, priority 1997, dated 2011).
Strand notation (5' to 3'): a small letter for the sugar, then the base; units joined by * are phosphorothioate-linked, units joined directly phosphodiester-linked; [ ] holds rarer units or linkages, { } end groups; capitals alone tell only the bases. V = LNA monomer of structure V, bold; X = bicyclic LNA-type nucleotide of structure X in the publication's (LNA marked in bold); Y = bicyclic LNA-type thymidine monomer of structure Y; l = locked nucleic acid (LNA); d = 2'-deoxy (DNA)

Experiments:
[1] = system: Nras amplicons (Nras 910, Nras 600, Nras 200); assay: Capture of Nras PCR amplicons by immobilised probes; assay type: binding, human; conditions: native amplicons; 1 pmol probe per well
Method: Three DIG labelled amplicons from Nras sequence (ref.: Nucleic Acid Research, 1985, Vol. 13, No. 14, p 52-55) were generated by PCR amplification as follows:
PCR reaction mixture for Nras amplicons: 2.3 μl human placental genomic DNA (440 ng/μl), 50 μl 10×PCR buffer (without MgCl2 Perkin Elmer), 30 μl 25 mM MgCl2, 50 μl dNTP-mix (2 mM dATP, dCTP, dGTP and 1.8 mM dTTP), 10 μl 1 mM Dig-11-dUTP, 10 μl 25 μM forward primer, 10 μl 25 μM reverse primer, 5 μl 5 U/μl AmpliTaq Gold (Perkin Elmer) and water ad 500 μl. PCR reaction: The above mixture was made for all the Nras PCR products. The only difference being reverse primer 910 bp, 600 bp or 200 bp added once at a time. The PCR mixtures were aliquoted into ten PCR tubes each and cycled in a Perkin Elmer 9600 at the following conditions: 95° C. 3 min; 55° C. 2 min, 72° C. 3 min, 95° C. 1 min (30 cycles); 55° C. 2 min, 72° C. 10 min and 4° C. soak. 10 μl from each PCR reaction was analysed on a standard agarose gel and the expected fragments of approximately 910 bp, 600 bp and 200 bp were observed. Assay conditions: Wells of a streptavidin coated micro-titer plate (Boehringer Mannheim; binding capacity of 20 pmol biotin per well) were incubated for 1 hour in 5×SSCT (0.75 M NaCl, 75 mM citrate, pH 7.0, 0.1% Tween 20) at 37° C. with either 1 pmol of DNA Nras Cap A (biotin-5′-TTCCACAGCACAA-3′) (SEQ ID NO:37), LNA/DNA Nras Cap A (biotin-5′-TTCCACAGCACAA-3′) (SEQ ID NO:38), LNA Nras Cap A (biotin-5′-TTCCACAGCACAA-3′) (SEQ ID NO:39), DNA Nras Cap B (biotin-5′-AGAGCCGATAACA-3′) (SEQ ID NO:40), LNA/DNA Nras Cap B (biotin-5′-AGAGCCGATAACA-3′) (SEQ ID NO:41) or LNA Nras Cap B (biotin-5′-AGAGCCGATAACA-3′) (SEQ ID NO:42); LNA nucleosides in bold. The Nras Cap A capture probes capture amplicons Nras 910, Nras 600 and Nras 200. Nras Cap B capture probes capture specific amplicons Nras 910 and Nras 600. After incubation with the different capture probes, the wells were washed in 5×SSCT and 5 μl native or denatured (95° C. 5 min and 10 min on ice) DIG-labelled amplicons (Nras 910, Nras 600 or Nras 200) in 95 μl 1×SSCT (0.15 M NaCl, 15 mM citrate, pH 7.0, 0.1% Tween 20) were added per well and incubated for 1 hour at 37° C. The wells were washed three times in phosphate buffered saline (1×PBST, 0.15 M Nat, pH 7.2, 0.05% Tween 20) and incubated 30 min at 37° C. with 200 μl peroxidase labelled anti-DIG antibodies (Boehringer Mannheim, diluted 1:1000 in 1×PBST). Finally the wells were washed three times in 1×PBST and assayed for peroxidase activity by adding 100 μl of substrate solution (0.1 M citrate-phosphate buffer pH 5.0, 0.66 mg/ml ortho-phenylenediamine dihydrochloride, 0.012% H2O2) the reaction was stopped after 9 min by adding 100 μl 0.5 M H2SO4 and diluted 4 times in H2SO4 before the absorbance at 492 nm was read in a micro-titer plate reader. […] We conclude that LNA modified oligos containing mixed LNA nucleosides (A, T, G or C LNA nucleosides) function efficiently in sequence specific capture of PCR amplicons when immobilised on a solid surface. We further conclude that LNA offers a means to construct capture probes that will function efficiently in amplicon capture without prior denaturation i.e. capture by strand displacement. This ability facilitates a significant simplification of current amplicon detection formats based on DNA.

[2] = system: 5′-d(AAAAAAAAAAAAAA)-3′; assay: Tm of duplex (spectrophotometric melting curves); assay type: binding; conditions: vs 5′-d(AAAAAAAAAAAAAA)-3′; 10 mM Na2HPO4 pH 7.0, 100 mM NaCl, 0.1 mM EDTA
Method: (§1) Thermostability of oligonucleotides containing monomers of formula V, X, Y and Z^T, Z^U, Z^G, Z^C, Z^A, Z^MeC. The thermostability of the LNA modified oligonucleotides were determined spectrophotometrically using a spectrophotometer equipped with a thermoregulated Peltier element. Hybridisation mixtures of 1 ml were prepared containing either of 3 different buffers (10 mM Na2HPO4, pH 7.0, 100 mM NaCl, 0.1 mM EDTA; 10 mM Na2HPO4 pH 7.0, 0.1 mM EDTA; 3M tetramethylammoniumchlorid (TMAC), 10 mM Na2HPO4, pH 7.0, 0.1 mM EDTA) and equimolar (1 μM or 1.5 μM) amounts of the different LNA modified oligonucleotides and their complementary or mismatched DNA or RNA oligonucleotides. Identical hybridisation mixtures using the unmodified oligonucleotides were prepared as references. The Tm's were obtained as the first derivative of the melting curves. FIG. 2 illustrates the monomeric LNAs used. The nomenclature V, X, Y and Z^T, Z^U, Z^G, Z^C, Z^A, Z^MeC refer to structures V, X, Y and Z of FIG. 2. In the tables, the nucleobases of the LNA monomers are indicated. Furthermore, for the thio and amino variants of the LNA structure Z of the last two tables, the nomenclature used is, e.g., Z^TS and Z^TNH, respectively.

[3] = system: 5′-(AAAAAAAAAAAAAA)-3′; assay: Tm of duplex (spectrophotometric melting curves); assay type: binding; conditions: vs RNA 5′-(AAAAAAAAAAAAAA)-3′; 10 mM Na2HPO4 pH 7.0, 100 mM NaCl, 0.1 mM EDTA
Method: as §1

Row | Substance | capture of specific amplicons without prior denaturation [1] | Tm (° C.) Na2HPO4/NaCl/EDTA [2] [°C] | Tm (° C.) Na2HPO4/NaCl/EDTA [3] [°C]
1 | LNA/DNA Nras Cap A: biotin-5′-TTCCACAGCACAA-3′ (SEQ ID NO:38), spiked with 4 LNA nucleosides (LNA nucleosides spiked in, positions not given here, 5' biotin) | capture the same amplicons with a lower efficiency |  | 
2 | 5′-d(TTTTTTTTTTTTTT)-3′ (SEQ ID NO: 126): poly-T containing X^T (sugars from the 5' end d5 X4 d5, backbone not given here) |  | 5 | 14
3 | 5′-d(TTTTTTTTTTTTTT)-3′ (SEQ ID NO: 123): poly-T containing X^T (sugars from the 5' end d6 X1 d1 X1 d5, backbone not given here) |  | 9 | 15
4 | 5′-d(TTTTTTTTTTTTTT)-3′ (SEQ ID NO: 107): partly modified poly-T with monomer V (sugars from the 5' end d5 V4 d5, backbone not given here) |  | 23 | 31
5 | 5′-d(TTTTTTTTTTTTTT)-3′ (SEQ ID NO: 89): partly modified poly-T oligonucleotide with Z^T (48, 49) (DNA dTdTdTdTdTlTlTlTlTdTdTdTdTdT) |  | 42 | 52
6 | 5′-d(TTTTTTTTTTTTTT)-3′ (SEQ ID NO: 120): poly-T containing X^T (sugars from the 5' end d6 X2 d6, backbone not given here) |  | 19 | 23
7 | 5′-d(TTTTTTTTTTTTTT)-3′ (SEQ ID NO: 101): partly modified poly-T with monomer V (sugars from the 5' end d6 V2 d6, backbone not given here) |  | 31 | 28
8 | 5′-d(TTTTTTTTTTTTTT)-3′ (SEQ ID NO: 110): partly modified poly-T with monomer V (sugars from the 5' end ddddVdVdVdVddd, backbone not given here) |  | 23 | 16
9 | 5′-d(TTTTTTTTTTTTTT)-3′ (SEQ ID NO: 132): partly modified poly-T with monomer Y (sugars from the 5' end d6 Y2 d6, backbone not given here) |  | 35 | 37
10 | 5′-d(TTTTTTTTTTTTTT)-3′ (SEQ ID NO: 144): fully modified poly-T oligonucleotide of structure Y (sugars from the 5' end Y13 d1, backbone not given here) |  | 58 | 58
11 | 5′-d(TTTTTTTTTTTTTT)-3′ (SEQ ID NO: 92): partly modified poly-T oligonucleotide with Z^T (50, 51) (DNA dTdTdTdTlTdTlTdTlTdTlTdTdTdT) |  | 47 | 53
12 | 5′-d(TTTTTTTTTTTTTT)-3′ (SEQ ID NO: 135): partly modified poly-T with monomer Y (sugars from the 5' end d6 Y1 d1 Y1 d5, backbone not given here) |  | 35 | 36
13 | 5′-d(TTTTTTTTTTTTTT)-3′ (SEQ ID NO: 80): unmodified poly-T oligonucleotide (Table 1, 42 and 43) (unmodified DNA) [reference compound] |  | 36 | 32
14 | 5′-d(TTTTTTTTTTTTTT)-3′ (SEQ ID NO: 117): poly-T containing X^T (sugars from the 5' end d7 X1 d6, backbone not given here) |  | 23 | 23
15 | 5′-d(TTTTTTTTTTTTTT)-3′ (SEQ ID NO: 86): partly modified poly-T oligonucleotide with Z^T (46, 47) (DNA dTdTdTdTdTdTlTlTdTdTdTdTdTdT) |  | 34 | 40
16 | 5′-d(TTTTTTTTTTTTTT)-3′ (SEQ ID NO: 138): partly modified poly-T with monomer Y (sugars from the 5' end d5 Y4 d5, backbone not given here) |  | 32 | 33
17 | 5′-d(TTTTTTTTTTTTTT)-3′ (SEQ ID NO: 98): partly modified poly-T with monomer V (sugars from the 5' end d7 V1 d6, backbone not given here) |  | 32 | 27
18 | 5′-d(TTTTTTTTTTTTTT)-3′ (SEQ ID NO: 104): partly modified poly-T with monomer V (sugars from the 5' end d6 V1 d1 V1 d5, backbone not given here) |  | 30 | 23
19 | 5′-d(TTTTTTTTTTTTTT)-3′ (SEQ ID NO: 83): partly modified poly-T oligonucleotide with Z^T (44, 45) (DNA dTdTdTdTdTdTlTdTdTdTdTdTdTdT) |  | 36 | 32
20 | 5′-d(TTTTTTTTTTTTTT)-3′ (SEQ ID NO: 129): partly modified poly-T with monomer Y (sugars from the 5' end d7 Y1 d6, backbone not given here) |  | 36 | 37
21 | 5′-d(TTTTTTTTTTTTTT)-3′ (SEQ ID NO: 141): partly modified poly-T with monomer Y (sugars from the 5' end ddddYdYdYdYddd, backbone not given here) |  | 36 | 36
